Measured values published in the NIST ThermoML archive (doi:10.1021/je0502546).
Numbers after ± are expanded uncertainties.

Columns and labels:
[1] = xn = mol fraction of the nth substance listed; conditions: 101 kPa, Liquid; for viscosity: Capillary tube (Ostwald / Ubbelohde) method
[2] = refractive index (Na D-line) (dimensionless); xn = mol fraction of the nth substance listed; conditions: 101 kPa, Liquid, Standard Abbe refractometry
[3] = refractive index (Na D-line) (dimensionless); conditions: 101.33 kPa, Liquid, Standard Abbe refractometry
[4] = 101 kPa, Liquid; for viscosity: Capillary tube (Ostwald / Ubbelohde) method

COc1ccccc1 [anisole] + c1ccccc1
Conditions | mass density, [1] [kg/m3] | refractive index, [2] | viscosity, [1] [mPa·s]
293.15 K, x1 = 0.0938 | 889.8 ± 0.31 | 1.5032 ± 0.0008 | 0.677 ± 0.006
293.15 K, x1 = 0.1955 | 903.56 ± 0.32 | 1.5053 ± 0.0008 | 0.711 ± 0.006
293.15 K, x1 = 0.3053 | 917.74 ± 0.33 | 1.5074 ± 0.0008 | 0.751 ± 0.007
293.15 K, x1 = 0.3994 | 929.35 ± 0.35 | 1.5091 ± 0.0008 | 0.788 ± 0.007
293.15 K, x1 = 0.5 | 941.27 ± 0.36 | 1.5108 ± 0.0008 | 0.829 ± 0.007
293.15 K, x1 = 0.6005 | 952.68 ± 0.38 | 1.5124 ± 0.0007 | 0.874 ± 0.008
293.15 K, x1 = 0.6996 | 963.47 ± 0.39 | 1.5139 ± 0.0007 | 0.921 ± 0.008
293.15 K, x1 = 0.8013 | 974.11 ± 0.41 | 1.5153 ± 0.0007 | 0.972 ± 0.009
293.15 K, x1 = 0.8978 | 983.8 ± 0.43 | 1.5166 ± 0.0007 | 1.025 ± 0.009
293.15 K, x1 = 1 | 993.8 ± 0.44 | 1.5177 ± 0.0007 | 1.084 ± 0.01
303.15 K, x1 = 0.0938 | 881.47 ± 0.31 | 1.4967 ± 0.0008 | 0.587 ± 0.005
303.15 K, x1 = 0.1955 | 895.16 ± 0.32 | 1.4989 ± 0.0008 | 0.616 ± 0.006
303.15 K, x1 = 0.3053 | 909.24 ± 0.33 | 1.5011 ± 0.0008 | 0.649 ± 0.006
303.15 K, x1 = 0.3994 | 920.76 ± 0.35 | 1.5028 ± 0.0008 | 0.679 ± 0.006
303.15 K, x1 = 0.5 | 932.57 ± 0.36 | 1.5046 ± 0.0008 | 0.714 ± 0.007
303.15 K, x1 = 0.6005 | 943.88 ± 0.37 | 1.5064 ± 0.0007 | 0.751 ± 0.007
303.15 K, x1 = 0.6996 | 954.56 ± 0.39 | 1.508 ± 0.0007 | 0.791 ± 0.007
303.15 K, x1 = 0.8013 | 965.08 ± 0.41 | 1.5096 ± 0.0007 | 0.836 ± 0.008
303.15 K, x1 = 0.8978 | 974.66 ± 0.42 | 1.511 ± 0.0007 | 0.88 ± 0.008
303.15 K, x1 = 1 | 984.37 ± 0.44 | 1.5124 ± 0.0007 | 0.931 ± 0.009

COc1ccccc1 [anisole] + CCCCc1ccccc1
x1 = 1
Conditions | mass density, [1] [kg/m3] | refractive index, [2] | viscosity, [1] [mPa·s]
293.15 K | 993.8 ± 0.44 | 1.5177 ± 0.0007 | 1.084 ± 0.01
303.15 K | 984.37 ± 0.44 | 1.5124 ± 0.0007 | 0.931 ± 0.009

Cc1ccccc1 [toluene]
Conditions | mass density, [4] [kg/m3] | refractive index, [3] | viscosity, [4] [mPa·s]
293.15 K | 866.88 ± 0.29 | 1.4962 ± 0.0006 | 0.588 ± 0.005
303.15 K | 857.46 ± 0.29 | 1.4914 ± 0.0006 | 0.523 ± 0.005

CCc1ccccc1 [ethylbenzene]
Conditions | mass density, [4] [kg/m3] | refractive index, [3] | viscosity, [4] [mPa·s]
293.15 K | 866.95 ± 0.22 | 1.4957 ± 0.0007 | 0.669 ± 0.006
303.15 K | 858.01 ± 0.22 | 1.4902 ± 0.0007 | 0.596 ± 0.005

CCCc1ccccc1 [propylbenzene]
Conditions | mass density, [4] [kg/m3] | refractive index, [3] | viscosity, [4] [mPa·s]
293.15 K | 863.13 ± 0.39 | 1.4916 ± 0.0007 | 0.855 ± 0.008
303.15 K | 854.71 ± 0.39 | 1.4858 ± 0.0007 | 0.744 ± 0.007

c1ccccc1 [benzene]
Conditions | mass density, [4] [kg/m3] | refractive index, [3] | viscosity, [4] [mPa·s]
293.15 K | 877.43 ± 0.3 | 1.5011 ± 0.0008 | 0.647 ± 0.006
303.15 K | 868.26 ± 0.3 | 1.4947 ± 0.0008 | 0.563 ± 0.005

Cc1ccccc1 [toluene] + COc1ccccc1
x2 = 0
Conditions | mass density, [1] [kg/m3] | refractive index, [2] | viscosity, [1] [mPa·s]
293.15 K | 866.88 ± 0.29 | 1.4962 ± 0.0006 | 0.588 ± 0.005
303.15 K | 857.46 ± 0.29 | 1.4914 ± 0.0006 | 0.523 ± 0.005
